From patent publication US20220315574A1, “Beta-Arrestin-Modulating Compounds and Methods of Using Same” (Duke University, priority 2019, published 2022)
Where a name gives a salt, the structure may show the parent alone.

Tests used:
Assay type in all cases: cell-based
[1] = test system: human AT1aR; assay: Intracellular calcium measurement, receptor desensitization; conditions: AngII-induced calcium signal
Protocol: Intracellular [Ca^2+] release was measured using FLIPR Calcium 6 with the FlexStation 3 microplate reader according to the manufacturer's instructions (Molecular Devices, LLC). Briefly, HEK293 cells stably expressing human AT1aR were seeded in poly-D-lysine-coated black 96-well assay plates (35,000 cells per well) and incubated for 24 hours. On the day of experiment, cell plates were loaded with the appropriate calcium kit reagents and then treated with βarr small molecule modulators or vehicle for 30 min. Basal fluorescence (FO) was measured, agonist was applied while fluorescence (F) intensity was monitored in real time.

[2] = test system: β2AR; assay: FRET-based cAMP accumulation (ICUE2 HEK293 cells), receptor desensitization; conditions: ICUE cells pretreated with inhibitor
Protocol: The Epac2 (ICUE2) sensor contains a CFP and YFP FRET pair. HEK293 cells stably expressing the ICUE2 cells were plated in poly-D-lysine-coated black 96 well plates (Corning) at a cell density of 50,000 cells per well. 16 hours after plating, cells were PBS-washed, then incubated in HEPES-buffered saline solution (150 mM NaCl, 5 mM KCl, 1 mM MgCl2, 2 mM CaCl2, 10 mM glucose, and 10 mM HEPES, pH 7.4) for one hour.

[3] = test system: V2R; assay: BRET based receptor internalization assay; conditions: V2R-expressing cells stimulated with AVP
Protocol: BRET-based assays were performed to measure receptor internalization using two complementary bystander BRET-formats. First, the association of the receptor (β2V2R-RlucII or V2R-RlucII, BRET donor) with the early endosome (2×FYVE-mVenus, BRET acceptor) was directly measured following agonist stimulation as described previously (Smith, J. S. et al. C-X-C Motif Chemokine Receptor 3 Splice Variants Differentially Activate Beta-Arrestins to Regulate Downstream Signaling Pathways. Mol Pharmacol 92, 136-150, doi:10.1124/mol.117.108522 (2017)). Second, receptor internalization following agonist stimulation was determined by measuring BRET signal from labeled receptor (β2V2R-RlucII or V2R-RlucII, BRET donor) and plasma membrane component (myr-palm-mVenus, BRET acceptor). Cells were transfected with 2.5 μg V2R-RlucII and 10 μg 2×FYVE-mVenus or 2 μg of myr-palm-mVenus using FuGENE HD (Promega, Madison, Wis.) in an individual 10 cm dish. ˜24 hours post-transfection, cells were seeded in white 96-well clear-bottomed plates at a density of 75,000 cells per well. The following day cells were washed and the media was changed to Hanks' Balanced Salt Solution (HBSS) buffer supplemented with 10 mM HEPES for 1 hours at 37° C. Cells were pretreated with βarr modulating compounds (50 μM) or vehicle, then incubated for 30 min at 37° C. Cells were stimulated with increasing doses of agonist isoproterenol or arginine vasopressin (GenScript). Coelenterazine-h was added to the cells 5 min prior to BRET measurements to a final concentration of 5 μM. BRET measurements were performed using the Synergy2 (BioTek®) microplate reader with a filter set of 410/80 nm and 515/30 nm to detect the RlucII (donor) and mVenus (acceptor) light emissions, respectively. The BRET signal was determined by calculating the ratio of the light intensity emitted by the acceptor over the light intensity emitted by the donor. Net BRET was calculated using this ratio and subtracting the same ratio measured from cells expressing only the BRET donor.

[4] = test system: ERK1/2; assay: Live cell ERK1/2 activation assay (HEK293 cells stably expressing β2AR); conditions: for βarr1/2-dependent ERK activation through β2-adrenergic receptor: carvedilol stimulation after compound pretreatment
Protocol: To assess the effect(s) of βarr small-molecule modulators on receptor-stimulated β-arr dependent ERK1/2 activation, HEK293 cells stably expressing β2AR plates were starved for 6 hours in serum-free medium prior to stimulation (Wisler, J. W. et al. A unique mechanism of beta-blocker action: carvedilol stimulates beta-arrestin signaling. Proc Natl Acad Sci USA 104, 16657-16662, doi:10.1073/pnas.0707936104 (2007); Wang, J. et al. Galphai is required for carvedilol-induced beta1 adrenergic receptor beta-arrestin biased signaling. Nat Commun 8, 1706, doi:10.1038/s41467-017-01855-z (2017)). Cells were pretreated with βarr small-molecule modulators or vehicle, then incubated for 30 min at 37° C. After stimulation with appropriate receptor ligand (carvedilol or isoproterenol) for indicated time points, reactions were terminated by the addition of Laemmli sample buffer. The cell lysates were sonicated for 15 sec (2×) and clarified by centrifugation 14,000×g (4° C., 15 min). Proteins were resolved on an SDS-PAGE gel, transferred to nitrocellulose membranes, and immunoblotted using rabbit polyclonal anti-phospho-p44/42 MAPK (ERK1/2) antibody (1:2000; Cell Signaling), anti-MAPK1/2 (ERK1/2) antibody (1:10,000; Millipore-Sigma), anti-β-arrestin1 antibody (A1CT; 1:3000) or anti-β-arrestin2 antibody (A1CT; 1:3000, Lefkowitz lab, Duke University). Protein bands on the membrane were detected with SuperSignal West Pico enhanced chemiluminescent substrate (Thermo Fisher) and captured using a ChemiDoc-XRS charge-coupled device camera system (Bio-Rad Laboratories). Bands were quantified by densitometry using Image Lab (Bio-Rad, Hercules, Calif.) and GraphPad Prism software was used for data analyses.
For experiments involving siRNA transfection and knockdown βarrs, after stimulation cells were lysed in ice-cold 1% NP-40 lysis buffer [20 mM tris-HCl (pH 7.4), 137 mM NaCl, 20% glycerol, 1% NP-40, 2 mM sodium orthovanadate, 1 mM phenylmethylsulfonyl fluoride, 10 mM sodium fluoride, aprotinin (10 μg/ml), leupeptin (5 μg/ml), and phosphatase inhibitors (Phos-STOP; Roche)], rotated for 45 min, and cleared of insoluble debris by centrifugation at 14,000×g (4° C., 15 min). After which the supernatant was collected, protein concentration determined, and equal amounts of cell lysate were mixed with 2×Laemmli sample buffer. Samples were analyzed afterwards essentially as described above.

[5] = test system: β2V2R-βarr internalization; assay: DiscoveRx PathHunter activated receptor endocytosis assay in U2OS cells; conditions: series of compound concentrations, 30 min pretreatment, isoproterenol dose-response
Protocol: β-arrestin-mediated activated receptor internalization was measure using the DiscoveRx PathHunter activated receptor endocytosis assay according to the manufacturer's protocols (DiscoverRx, Fremont, Calif.). Briefly, an Enzyme Acceptor (EA)-tagged βarr and a ProLink tag localized to endosomes are stably expressed in U2OS cells. Untagged β2V2R is transiently expressed (4 ug of DNA). The next day, cells (25,000 cells per well) were then seeded in white 96-well clear-bottomed assay plates and incubated for 24 h before experiments. On the day of experiment, cells were first treated with compound or vehicle for 30 min, followed by a series concentrations of agonist (Iso) stimulation for 60 min at 37° C. Receptor internalization was detected as luminescence resulting from the complementation of β-galactosidase fragments (Enzyme Acceptor and ProLink) within endosomes. Luminescence signals were measured on a CLARIOstar microplate reader using the PathHunter Detection kit (DiscoveRx).

SMILES | desensitization of AT1aR [1] | isoproterenol-stimulated cAMP accumulation vs untreated control cells [2] | internalization of the receptor and association with early endosomes [3] | βarr1/2-dependent ERK activation through β2-adrenergic receptor [4] | maximal agonist induced receptor-βarr internalization response [5] | EC50 ([4]; Homo sapiens, HEK293, βarr-dependent but receptor-independent) | basal phosphorylation of ERK1/2 ([4]; compound alone, absent of agonist) | time of peak ERK activation signal ([4]; compound alone, decline observed at 30 minutes) | compound-induced ERK1/2 phosphorylation after knockdown of βarr1/2 ([4]; βarr1/2 siRNA vs control siRNA)
C=C1C(=O)C23[C@H](O)C1CC[C@H]2[C@]12COC3(O)[C@@H](O)[C@@H]1C(C)(C)CC[C@@H]2O [Cmpd-5, (1R,2S,10S,11R,15S,18R)-9,10,15,18-tetrahydroxy-12,12-dimethyl-6-methylidene-17-oxapentacyclo[7.6.2.15,8.01,11.02,8]octadecan-7-one] | inhibited | increased cAMP accumulation | inhibit | attenuate | significantly diminished |  |  |  | 
CN(C)c1n/c(=N/Cc2ccco2)ss1 [Cmpd-30, 5-(furan-2-ylmethylimino)-N,N-dimethyl-1,2,4-dithiazol-3-amine;hydrobromide] | inhibited | increased cAMP accumulation | inhibit |  | significantly diminished | 500 nM | increased | 15 to 20 min | markedly impaired
C=C1C(=O)OC2CC3(C)OC3CC/C(C)=C\C(OC(C)=O)C12 (stereo not drawn) [Cmpd-64, [(8Z)-3,8-dimethyl-12-methylidene-13-oxo-4,14-dioxatricyclo[9.3.0.03,5]tetradec-8-en-10-yl] acetate] | inhibited | increased cAMP accumulation | inhibit | attenuate | significantly diminished |  |  |  | 
